Measured values published in PMC6133161, “Thiazoles with cyclopropyl fragment as antifungal, anticonvulsant, and anti-Toxoplasma gondii agents: synthesis, toxicity evaluation, and molecular docking study” (Medicinal Chemistry Research, 2018).

What was measured:
motor coordination = experiment: Rotarod test; format: in vivo, mouse; details: mice, 100 mg/kg, 60 min pretreatment; 6, 18 and 24 rpm
Protocol: For in vivo tests that assessed anticonvulsant properties of the test compounds 3a–3j adult male Albino Swiss (CD-1) mice weighing between 18 and 22 g were used. The animals were housed in groups of ten mice per cage at room temperature of 22 ± 2 °C, under light/dark (12:12) cycle. The animals had free access to food and tap water before the experiments. The ambient temperature of the experimental room and humidity (50 ± 10%) were kept consistent throughout all the tests. For behavioral experiments the animals were selected randomly. Each experimental group consisted of 4–8 animals/dose. The experiments were performed between 9 AM and 2 PM. Immediately after the in vivo assay the animals were euthanized by cervical dislocation. All procedures were approved by the Local Ethics Committee of the Jagiellonian University in Krakow (34/2018, 1.02.2018)) and the treatment of animals was in full accordance with ethical standards laid down in respective Polish and EU regulations (Directive No. 86/609/EEC). For in vivo tests the compounds 3a–3j were prepared in 1% Tween 80 solution (POCH, Poland) and they were administered by the intraperitoneal route. Control mice received 1% Tween 80. Pentylenetetrazole (PTZ), pilocarpine hydrochloride and scopolamine butylbromide were provided by Sigma Aldrich (Poland). For the tests they were prepared in 0.9% saline (Polfa Kutno, Poland). PTZ and pilocarpine were administered 60 min after the test compound or vehicle. To assess anticonvulsant properties of the test compounds anticonvulsant screening was conducted. Four assays were used: PTZ, maximal electroshock seizure (MES), 6-Hz and pilocarpine tests. In these assays the dose of 100 mg/kg was chosen as a starting dose. If it turned out to be effective, a lower dose (30 mg/kg) was also tested. The test was performed according to the method recently described (Sałat et al. [2005]). The mice were trained daily for 3 consecutive days on the rotarod apparatus (Rotarod apparatus, May Commat RR0711, Turkey; rod diameter: 2 cm) rotating at a constant speed of 18 rotations per minute (rpm). During each training session, the animals were placed on a rotating rod for 3 min with an unlimited number of trials. The proper experimentation was conducted 24 h after the final training trial. […] Motor impairments, defined as the inability to remain on the rotating rod for 1 min were measured and mean time spent on the rod was counted in each experimental group.

[1] = tested on: pilocarpine-induced status epilepticus; experiment: Pilocarpine-induced seizures; format: in vivo, mouse; details: mice, 100 mg/kg ip, pilocarpine 400 mg/kg ip; post-hoc vs vehicle
Protocol: For in vivo tests that assessed anticonvulsant properties of the test compounds 3a–3j adult male Albino Swiss (CD-1) mice weighing between 18 and 22 g were used. The animals were housed in groups of ten mice per cage at room temperature of 22 ± 2 °C, under light/dark (12:12) cycle. The animals had free access to food and tap water before the experiments. The ambient temperature of the experimental room and humidity (50 ± 10%) were kept consistent throughout all the tests. For behavioral experiments the animals were selected randomly. Each experimental group consisted of 4–8 animals/dose. The experiments were performed between 9 AM and 2 PM. Immediately after the in vivo assay the animals were euthanized by cervical dislocation. All procedures were approved by the Local Ethics Committee of the Jagiellonian University in Krakow (34/2018, 1.02.2018)) and the treatment of animals was in full accordance with ethical standards laid down in respective Polish and EU regulations (Directive No. 86/609/EEC). For in vivo tests the compounds 3a–3j were prepared in 1% Tween 80 solution (POCH, Poland) and they were administered by the intraperitoneal route. Control mice received 1% Tween 80. Pentylenetetrazole (PTZ), pilocarpine hydrochloride and scopolamine butylbromide were provided by Sigma Aldrich (Poland). For the tests they were prepared in 0.9% saline (Polfa Kutno, Poland). PTZ and pilocarpine were administered 60 min after the test compound or vehicle. To assess anticonvulsant properties of the test compounds anticonvulsant screening was conducted. Four assays were used: PTZ, maximal electroshock seizure (MES), 6-Hz and pilocarpine tests. In these assays the dose of 100 mg/kg was chosen as a starting dose. If it turned out to be effective, a lower dose (30 mg/kg) was also tested. In this test the mice were pretreated with the investigated compound or vehicle and 60 min later they received pilocarpine (400 mg/kg, ip). To avoid cholinergic side-effects: peripheral toxicity and diarrhea, masticatory and stereotyped movements, animals treated with pilocarpine also received scopolamine butylbromide (1 mg/kg, ip) which was injected 45 min before pilocarpine. After the administration of the convulsant, the mice were observed during the next 60 min for behavioral changes. Latency time to the onset of status epilepticus was considered as the endpoint in this test (Wilhelm et al. [2010]).

| SMILES | motor coordination (time spent on rotarod) (motor coordination) | latency time to pilocarpine-induced status epilepticus [1] |
| --- | --- | --- |
| Clc1ccc(-c2csc(N/N=C/C3CC3)n2)cc1 [Compound 3c, (E)-4-(4-Chlorophenyl)-2-(2-(cyclopropylmethylene)hydrazinyl)thiazole] | None of these compounds impaired motor skills | did not show statistically significant anticonvulsant effects |
| FC(F)(F)c1ccc(-c2csc(N/N=C/C3CC3)n2)cc1 [Compound 3e, (E)-2-(2-(Cyclopropylmethylene)hydrazinyl)-4-(4-(trifluoromethyl)phenyl)thiazole] | None of these compounds impaired motor skills | did not show statistically significant anticonvulsant effects |
| COc1ccc(-c2csc(N/N=C/C3CC3)n2)cc1 [Compound 3f, (E)-2-(2-(Cyclopropylmethylene)hydrazinyl)-4-(4-methoxyphenyl)thiazole] | None of these compounds impaired motor skills | did not show statistically significant anticonvulsant effects |
| [N-]=[N+]=Nc1ccc(-c2csc(N/N=C/C3CC3)n2)cc1 [Compound 3i, (E)-4-(4-Azidophenyl)-2-(2-(cyclopropylmethylene)hydrazinyl)thiazole] | None of these compounds impaired motor skills | did not show statistically significant anticonvulsant effects |
